# Results as given in US20190293657A1, “PEPTIDE, FLUORESCENT PROBE COMPRISING THE SAME, AND PREPARATION METHOD THEREOF” (Singulprobe Nanjing Biotechnology Co., Ltd, priority 2017, published 2019).
# System: lysosome (U2OS cells)
# Assay: Structural illumination microscopy (N-SIM) super-resolution imaging of lysosomes
# Format: cell-based
# Settings: FIG. 8
# Description: Super-resolution imaging by structural illumination microscopy: super-resolution microscope N-SIM (Nikon, Japan) was employed. The maximum excitation wavelength of Alexa Fluor 647 was 650 nm and the maximum emission wavelength was 665 nm; the maximum excitation wavelength of LysoTracker Red was 577 nm and the maximum emission wavelength of LysoTracker Red was 590 nm; the maximum excitation wavelength of Atto 565 was 563 nm and the maximum emission wavelength of Atto 565 was 592 nm; the maximum excitation wavelength of Atto 488 was 501 nm and the maximum emission wavelength was 523 nm. A sample was photographed using a 2D-SIM mode, one SIM result was calculated from 9 original images (three angles, three phases), and the exposure time of each original image was 30 ms. Considering quick movement ability of a lysosome in living cells, single-color imaging interval time was set as 1 s so as to continuously photograph cells at above 300 frames. After the capturing was completed, the average time interval among various SIM images was about 1.15 s. […]
# Based on a time-lapsed SIM imaging, take the center of the lysosome as a reference, the coordinates of lysosomes were recorded using ImageJ software, and trace charts of 101 lysosomes in four U2OS cells on the confocal surface were drawn using MATLAB (FIGS. 6A-6H). […]
smiles,measurement,value
CN(C)CCNC(=O)CCc1ccc2n1[B-](F)(F)[N+]1=C(c3ccc[nH]3)C=CC1=C2 [LysoTracker Red],background in structural illumination super-resolution imaging,uneven background of LysoTracker Red was very obvious
